Reference: the NIST ThermoML archive (doi:10.1016/j.fluid.2012.01.008)
Numbers after ± are expanded uncertainties.

Conditions: 313.15 K; Liquid; Closed cell (Static) method

Compound | vapor or sublimation pressure
CCCCCCC [heptane] | 12.34 ± 0.03 kPa
Cc1ccccc1 [toluene] | 7.886 ± 0.022 kPa
